According to paper PMC6204900 (The Journal of Biological Chemistry, 2018):
Entries after “also recorded” stand apart in the source; their conditions may differ. Like-named read-outs stand apart in the source and are kept apart here.

Assays:
[1] = biological target: T1, IGF-1R (Homo sapiens, UniProt P08069); test: Association, dissociation and accelerated dissociation kinetics of 125I-labeled ligands on IGF-1R in CHO-R+ cells; assay type: binding; settings: for (d1) dissociation rate at maximum acceleration ± S.D., IGF-1R / dissociation rate (measured) ± S.D., IGF-1R: 15°C; for (d1) dissociation rate at maximum acceleration ± S.D., IGF-1R: dissociation of 125I-labeled ligand in the presence of 170 nM cold ligand (17 μM for insulin), monoexponential decay fit; for dissociation rate (measured) ± S.D., IGF-1R: dissociation of 125I-labeled ligand without cold ligand; for Shape of dose-response curve for accelerated dissociation, IGF-1R: 125I-labeled ligand preincubated […] at 15°C, cold ligand 0.001 nM-10 µM for 30 min at 15°C
T1 construct: expressed in transfected cells; host or cells: CHO-K1 (ATCC) stably transfected with pcDNA3-IGF-1R vector (gift of R. O'Connor); polyclonal CHO-R+ population
Protocol: (§1) For details, see supporting information.
(§2) HEPES binding buffer. The use of bovine serum albumin in the binding buffer (e.g. Sigma-Aldrich […]
(§3) Following the incubation, the cells were washed twice with ice-cold binding buffer and solubilized with 0.1 M NaOH. Cell-associated radioactivity was counted using the Gamma Counter Wizard 1470 (Perkin […]
(§4) Each binding curve was determined
(§5) For dose-response curves for accelerated dissociation the cells (3 x 10^7/mL) in HEPES binding buffer were preincubated with the radio-labeled ligand (about 2500 Ci/mmol, 150,000 cpm/mL, about 0.03 nM) for 2.5 hours at 15°C. After the preincubation, the suspension was centrifuged at 1000 x g, 4°C for 5 min and the supernatant containing the unbound radioactivity was discarded. The pellet was resuspended in the initial volume of buffer.

[2] = biological target: T1, IGF-1R; test: Whole-cell receptor-binding assay, IGF-1R in transfected mouse embryonic fibroblasts
Description: (§6) Human IM-9 lymphocytes (containing IR-A) and IGF-1R null mouse embryonic fibroblasts, stably transfected with either human IR-B or human IGF-1R, were employed for a whole-cell receptor-binding assay as described previously ([32], [33], [42]). For details, see supporting information.
(§7) ULTIMATE 3000 RSLCnano (Dionex, Thermo Scientific) coupled to TripleTOFTM 5600 (SCIEX).
The extent of iodination in a specific position in the three fractions containing iodinated Tyr residues […]
was approximated by comparing the area of peaks corresponding to peptides containing TyrB16, […]
(§8) TyrB26 and TyrB32 and their iodinated counterparts.
Human IM-9 lymphocytes (containing IR-A) and IGF-1R null mouse embryonic fibroblasts, […]
stably transfected with either human IR-B or human IGF-1R, were employed for whole cell receptor- […]
binding assay as described previously (3-5). […]
binding buffer (100 mM HEPES, 100 mM NaCl, 5 mM KCl, 1.3 mM MgSO4, 1 mM EDTA, 10 mM […]
glucose, 15 mM NaOAc, 1 % w/v BSA, pH 7.6). After incubation 2 x 200 µL were centrifuged at […]
(§9) 15,000 x g for 10 min in microfuge tubes containing 200 µL of pre-cooled HEPES binding buffer.
Radioactive pellets were counted using the Gamma Counter Wizard 1470 (Perkin Elmer). Binding data […]
(§10) were analyzed by Excel software using a method of non-linear regression and a one-site fitting program […]
developed in the laboratory of Dr. Pierre De Meyts (A.V. Groth and R.M. Shymko, Hagedorn Research […]
Institute, Denmark, a kind gift of Pierre De Meyts). […]
set up to 0.3 nM. Receptor binding assays were performed under conditions excluding the depletion of […]
(§11) calculated using the two-tailed t test. […]
Following the incubation, the cells were washed twice with ice-cold binding buffer and solubilized with 0.1 M NaOH. Cell-associated radioactivity was counted using the Gamma Counter Wizard 1470 (Perkin Elmer). Binding data were analyzed by and the dissociation constant (Kd) was determined with GraphPad Prism 5 using a non-linear regression, a one-site fitting program and taking into account potential depletion of free ligand.
Each binding curve was determined […]

[3] = biological target: T2, IR-A (Homo sapiens, UniProt P06213); test: Whole-cell receptor-binding assay, IR-A in IM-9 lymphocytes; settings: as E1; measurement series ≈; read-out: IR-A Kd ± S.D. (n)
T2 construct: host or cells: human IM-9 lymphocytes
T2 sequence (P06213 28-1370 isoform P06213-2 limits assumed): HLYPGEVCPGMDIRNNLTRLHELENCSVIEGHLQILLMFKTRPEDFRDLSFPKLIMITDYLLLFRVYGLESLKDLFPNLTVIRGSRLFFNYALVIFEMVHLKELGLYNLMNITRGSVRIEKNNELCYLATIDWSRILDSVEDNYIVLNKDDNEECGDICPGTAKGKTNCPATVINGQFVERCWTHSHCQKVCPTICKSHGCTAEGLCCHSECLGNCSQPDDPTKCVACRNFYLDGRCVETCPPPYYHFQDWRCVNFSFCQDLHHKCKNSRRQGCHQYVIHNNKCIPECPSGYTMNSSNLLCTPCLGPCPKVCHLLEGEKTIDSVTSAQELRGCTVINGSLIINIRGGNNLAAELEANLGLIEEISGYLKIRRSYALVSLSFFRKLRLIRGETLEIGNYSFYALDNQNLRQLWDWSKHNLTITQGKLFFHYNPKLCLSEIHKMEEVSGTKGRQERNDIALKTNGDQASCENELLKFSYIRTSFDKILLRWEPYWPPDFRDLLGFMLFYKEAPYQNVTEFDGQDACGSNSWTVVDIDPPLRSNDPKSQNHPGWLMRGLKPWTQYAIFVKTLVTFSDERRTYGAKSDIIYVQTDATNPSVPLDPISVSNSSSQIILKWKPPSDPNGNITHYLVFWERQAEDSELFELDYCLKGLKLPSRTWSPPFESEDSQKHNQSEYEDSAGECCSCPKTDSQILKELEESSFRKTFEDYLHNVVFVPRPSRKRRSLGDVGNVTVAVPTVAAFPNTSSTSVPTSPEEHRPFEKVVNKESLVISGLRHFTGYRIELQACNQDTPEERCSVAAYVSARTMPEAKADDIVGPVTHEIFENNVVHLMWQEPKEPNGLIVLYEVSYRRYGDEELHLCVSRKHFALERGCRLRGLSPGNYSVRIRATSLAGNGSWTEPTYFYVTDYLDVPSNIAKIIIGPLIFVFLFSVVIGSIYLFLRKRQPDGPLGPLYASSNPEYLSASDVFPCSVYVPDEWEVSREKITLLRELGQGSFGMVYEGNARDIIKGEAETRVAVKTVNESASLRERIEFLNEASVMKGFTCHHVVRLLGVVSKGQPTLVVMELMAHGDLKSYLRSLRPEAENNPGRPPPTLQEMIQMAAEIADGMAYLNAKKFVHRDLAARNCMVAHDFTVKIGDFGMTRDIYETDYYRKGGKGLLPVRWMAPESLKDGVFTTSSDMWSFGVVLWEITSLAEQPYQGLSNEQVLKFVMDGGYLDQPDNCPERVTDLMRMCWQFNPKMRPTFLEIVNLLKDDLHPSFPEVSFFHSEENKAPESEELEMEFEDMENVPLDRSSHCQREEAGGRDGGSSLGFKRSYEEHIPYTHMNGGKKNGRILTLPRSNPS
T2 sequence (P06213 763-1382 partner limits assumed): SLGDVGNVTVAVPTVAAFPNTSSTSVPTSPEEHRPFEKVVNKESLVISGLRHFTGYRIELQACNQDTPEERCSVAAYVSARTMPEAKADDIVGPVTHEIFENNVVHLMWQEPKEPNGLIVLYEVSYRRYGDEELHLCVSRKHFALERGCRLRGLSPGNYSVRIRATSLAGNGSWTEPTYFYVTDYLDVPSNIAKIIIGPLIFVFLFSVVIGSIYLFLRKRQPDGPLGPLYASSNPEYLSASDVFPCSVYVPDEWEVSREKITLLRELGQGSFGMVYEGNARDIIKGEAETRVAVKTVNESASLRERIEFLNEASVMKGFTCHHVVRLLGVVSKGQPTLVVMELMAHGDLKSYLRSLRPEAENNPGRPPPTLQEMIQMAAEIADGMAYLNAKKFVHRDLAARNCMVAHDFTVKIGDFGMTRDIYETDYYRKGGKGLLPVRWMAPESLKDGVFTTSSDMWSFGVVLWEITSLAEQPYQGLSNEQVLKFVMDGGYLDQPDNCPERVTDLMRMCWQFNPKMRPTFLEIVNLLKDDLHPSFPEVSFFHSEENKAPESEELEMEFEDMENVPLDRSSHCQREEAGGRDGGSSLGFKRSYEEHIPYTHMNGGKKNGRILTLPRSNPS
Description: as §6, §7
The extent of iodination in a specific position in the three fractions containing iodinated Tyr residues
was approximated by comparing the area of peaks corresponding to peptides containing TyrB16,
as §8
Human IM-9 lymphocytes (containing IR-A) and IGF-1R null mouse embryonic fibroblasts,
stably transfected with either human IR-B or human IGF-1R, were employed for whole cell receptor-
binding assay as described previously (3-5).
binding buffer (100 mM HEPES, 100 mM NaCl, 5 mM KCl, 1.3 mM MgSO4, 1 mM EDTA, 10 mM
glucose, 15 mM NaOAc, 1 % w/v BSA, pH 7.6). After incubation 2 x 200 µL were centrifuged at
as §9
Radioactive pellets were counted using the Gamma Counter Wizard 1470 (Perkin Elmer). Binding data
as §10, §11

[4] = biological target: T2, IR-A; test: Association, dissociation and accelerated dissociation kinetics of 125I-labeled ligands on IR-A in IM-9 cells; assay type: binding
Protocol: as §1, §2, §3, §4, §5

[5] = biological target: T1, IGF-1R; test: Ligand-dose response IGF-1R autophosphorylation, In-Cell Western assay; assay type: cell-based; settings: 0.1-100 nM ligand, 20 min, relative to 10 nM IGF-1
Protocol: Ligand–dose response IGF-1R autophosphorylation levels for selected analogs were determined, using the In-Cell Western assay adapted for chemiluminescence as described ([34]). […] Experiments were repeated at least four times. Log(agonist) versus response curve fitting of data was carried out with GraphPad Prism 5.
Mean ± S.D. (n ≥ 4) values were calculated.
one-way analysis of variance (ANOVA) with Dunnett’s test comparing all analogs versus control i.e.
Ligand-dose response IGF-1R autophosphorylation levels for selected analogs were determined, using In-Cell Western assay adapted for chemiluminiscence as described in (6). The IGF-1R cells were plated at 20,000 cells/well in white 96-well Brand plates cell grade (Brand GMBH, Germany) and incubated for 24 hours. Cells were afterwards starved for 4 hours in serum-free media and stimulated with dilutions of ligands (0-100 nM) for 20 min. After the incubation, the medium was discarded and the cells were fixed in 3.75 % v/v freshly prepared formaldehyde for 20 min. […]
Then plates were thoroughly washed with TBS and incubated with peroxidase-labeled anti-rabbit secondary antibody (Sigma) for 1 hour at room temperature, and washed again. SuperSignal West Femto maximum sensitivity substrate was added to each well and chemiluminiscence was detected using the ChemiDoc MP Imaging System after 5 min. […]

[6] = biological target: T1, IGF-1R; test: Receptor phosphorylation assay (immunoblotting), IGF-1R-transfected mouse fibroblasts (R+39); assay type: cell-based; settings: 10 nM ligand, 10 min, n ≥ 4
Description: For details, see supporting information. […] Each experiment was repeated four times.

Row | Substance | (d1) dissociation rate at maximum acceleration ± S.D., IGF-1R [1] [min⁻¹] | dissociation rate (measured) ± S.D., IGF-1R [1] [min⁻¹] | Shape of dose-response curve for accelerated dissociation, IGF-1R [1] | Kd ([2]; IGF-1R null mouse embryonic fibroblasts transfected with human IGF-1R, competition with mono-125I-IGF-1 (about 0.01 nM), 16 h at 5°C, HEPES binding buffer, mean ± S.D. of n≥3 binding curves, measurement series #) [nM] | Kd [3] [nM] | Kd ([2]; as E12, measurement series $, read-out: IGF-1R Kd ± S.D. (n)) [nM] | Increase of binding to IGF-1R compared with insulin ([2]; from Table 1 binding affinities) | (d1) dissociation rate at maximum acceleration ± S.D., IR-A ([4]; 15°C, dissociation of 125I-labeled ligand in the presence of 170 nM cold ligand, monoexponential decay fit) [min⁻¹] | dissociation rate (measured) ± S.D., IR-A ([4]; 15°C, dissociation of 125I-labeled ligand without cold ligand) [min⁻¹] | Shape of dose-response curve for accelerated dissociation, IR-A ([4]; 125I-labeled ligand preincubated […] at 15°C, cold ligand 0.001 nM-10 µM for 30 min at 15°C) | Dose-response of IGF-1R stimulation [5] | Ability to stimulate IGF-1R phosphorylation [6]
1 | insulin [reference compound] | 0.0069 ± 0.0004 | 0.0026 ± 0.0010 | sigmoid | – | – | – | – | – | – | – | – | –
2 | IGF-2: insulin-like growth factor 2, protein hormone closely related to insulin | – | – | – | 2.32 ± 1.24 | 2.92 ± 0.24 | – | – | – | – | – | – | –
3 | [D-His^B24, Gly^B31, Tyr^B32]-insulin | 0.0203 ± 0.0038 | 0.0064 ± 0.0035 | sigmoid | – | – | 0.89 ± 0.2 | about 150 fold | 0.0432 ± 0.0032 | 0.0017 ± 0.0002 | bell-shaped | equipotent to IGF-2 | increased stimulation of the receptor; also recorded: to an extent approximating IGF-2
